Key:
Type in all cases: in vivo
[1] = tested on: Zea mays; assay: Test Example 4: effect on crop by application to foliage (diluvial soil, plastic box); settings: Application herbicide amount 320 g/ha; foliage application
Procedure, shortened: (§1)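 Greenhouse plants (25° C. to 30° C., 14 d, diluvial soil) receive a foliar spray of water-diluted emulsifiable formulation at defined g/ha. Grading after 3 weeks uses a six-step herbicidal-ratio scale, with 4 covering 70% to <90% and 1 covering 5% to <20%.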

[2] = tested on: Glycine max; assay: as above; settings: Application herbicide amount 320 g/ha; foliage application
Procedure, shortened: as §1

[3] = tested on: Brassica campestris L.; assay: as above; settings: Application herbicide amount 320 g/ha; foliage application
Procedure, shortened: as §1

[4] = tested on: Beta vulgaris ssp. vulgaris; assay: as above; settings: Application herbicide amount 320 g/ha; foliage application
Procedure, shortened: as §1

[5] = tested on: Triticum aestivum; assay: as above; settings: Application herbicide amount 320 g/ha; foliage application
Procedure, shortened: as §1

[6] = tested on: transplanted Oryza sativa; assay: Test Example 1: effect on crop, application before weed generation in submerged conditions; settings: Application herbicide amount 320 g/ha; Seventeenth Table
Procedure, shortened: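 Water-diluted emulsion formulation is applied onto flood water (4 cm deep) covering alluvial soil on the day weed seeds are sown, after transplanting 2.5 leaf stage rice. Rates are expressed per hectare. Injury or control is graded 0–5 three weeks later.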

[7] = tested on: Digitaria ciliaris; assay: Test Example 4: herbicidal effect by application to foliage (diluvial soil, plastic box); settings: Application herbicide amount 320 g/ha; foliage application
Procedure, shortened: as §1

[8] = tested on: Echinochloa crus-galli var. crus-galli; assay: as above; settings: Application herbicide amount 320 g/ha; foliage application
Procedure, shortened: as §1

[9] = tested on: Amaranthus retroflexus; assay: as above; settings: Application herbicide amount 320 g/ha; foliage application
Procedure, shortened: as §1

[10] = tested on: Setaria viridis; assay: as above; settings: Application herbicide amount 320 g/ha; foliage application
Procedure, shortened: as §1

[11] = tested on: Lolium multiflorum Lam.; assay: as above; settings: Application herbicide amount 320 g/ha; foliage application
Procedure, shortened: as §1

[12] = tested on: Alopecurus myosuroides; assay: as above; settings: Application herbicide amount 320 g/ha; foliage application
Procedure, shortened: as §1

[13] = tested on: Galium spurium; assay: as above; settings: Application herbicide amount 320 g/ha; foliage application
Procedure, shortened: as §1

[14] = tested on: Stellaria media; assay: as above; settings: Application herbicide amount 320 g/ha; foliage application
Procedure, shortened: as §1

[15] = tested on: Abutilon theophrasti; assay: as above; settings: Application herbicide amount 320 g/ha; foliage application
Procedure, shortened: as §1

[16] = tested on: Veronica persica; assay: as above; settings: Application herbicide amount 320 g/ha; foliage application
Procedure, shortened: as §1

[17] = tested on: Chenopodium album; assay: as above; settings: Application herbicide amount 320 g/ha; foliage application
Procedure, shortened: as §1

[18] = tested on: Apera spica-venti.; assay: as above; settings: Application herbicide amount 320 g/ha; foliage application
Procedure, shortened: as §1

[19] = tested on: Avena fatua; assay: as above; settings: Application herbicide amount 320 g/ha; foliage application
Procedure, shortened: as §1

Row | Compound | c (Zea mays) effect on crop grade [1] | d (Glycine max) effect on crop grade [2] | g (Brassica campestris L.) effect on crop grade [3] | f (Beta vulgaris ssp. vulgaris) effect on crop grade [4] | e (Triticum aestivum) effect on crop grade [5] | a: transplanted Oryza sativa (effect on crop grade) [6] | F (Digitaria ciliaris) herbicidal effect grade [7] | H (Echinochloa crus-galli var. crus-galli) herbicidal effect grade [8] | N (Amaranthus retroflexus) herbicidal effect grade [9] | G (Setaria viridis) herbicidal effect grade [10] | K (Lolium multiflorum Lam.) herbicidal effect grade [11] | J (Alopecurus myosuroides) herbicidal effect grade [12] | Q (Galium spurium) herbicidal effect grade [13] | P (Stellaria media) herbicidal effect grade [14] | M (Abutilon theophrasti) herbicidal effect grade [15] | R (Veronica persica) herbicidal effect grade [16] | O (Chenopodium album) herbicidal effect grade [17] | L (Apera spica-venti.) herbicidal effect grade [18] | I (Avena fatua) herbicidal effect grade [19]
1 | CC(C)N(C)c1nnc2c(C(=O)Nc3nnco3)ccc(C(F)(F)F)n12 [1-122] | 2 (Herbicidal ratio of 20% or more and less than 40%) | 5 (Herbicidal ratio of 90% or more (almost completely withered)) | 5 (Herbicidal ratio of 90% or more (almost completely withered)) | 5 (Herbicidal ratio of 90% or more (almost completely withered)) | 2 (Herbicidal ratio of 20% or more and less than 40%) | 3 (Herbicidal ratio of 40% or more and less than 70%) | 5 (Herbicidal ratio of 90% or more (almost completely withered)) | 5 (Herbicidal ratio of 90% or more (almost completely withered)) | 5 (Herbicidal ratio of 90% or more (almost completely withered)) | 5 (Herbicidal ratio of 90% or more (almost completely withered)) | 3 (Herbicidal ratio of 40% or more and less than 70%) | 3 (Herbicidal ratio of 40% or more and less than 70%) | 4 (Herbicidal ratio of 70% or more and less than 90%) | 5 (Herbicidal ratio of 90% or more (almost completely withered)) | 5 (Herbicidal ratio of 90% or more (almost completely withered)) | 5 (Herbicidal ratio of 90% or more (almost completely withered)) | 5 (Herbicidal ratio of 90% or more (almost completely withered)) | 4 (Herbicidal ratio of 70% or more and less than 90%) | 2 (Herbicidal ratio of 20% or more and less than 40%)
2 | CN(c1nnc2c(C(=O)Nc3nnco3)ccc(C(F)(F)F)n12)C1CCCCC1 [1-123] | 0 (Herbicidal ratio of 5% or less (almost no effect)) | 3 (Herbicidal ratio of 40% or more and less than 70%) | 3 (Herbicidal ratio of 40% or more and less than 70%) | 4 (Herbicidal ratio of 70% or more and less than 90%) | 0 (Herbicidal ratio of 5% or less (almost no effect)) | 1 (Herbicidal ratio of 5% or more and less than 20%) | 4 (Herbicidal ratio of 70% or more and less than 90%) | 4 (Herbicidal ratio of 70% or more and less than 90%) | 4 (Herbicidal ratio of 70% or more and less than 90%) | 3 (Herbicidal ratio of 40% or more and less than 70%) | 0 (Herbicidal ratio of 5% or less (almost no effect)) | 0 (Herbicidal ratio of 5% or less (almost no effect)) | 2 (Herbicidal ratio of 20% or more and less than 40%) | 4 (Herbicidal ratio of 70% or more and less than 90%) | 4 (Herbicidal ratio of 70% or more and less than 90%) | 3 (Herbicidal ratio of 40% or more and less than 70%) | 5 (Herbicidal ratio of 90% or more (almost completely withered)) | 0 (Herbicidal ratio of 5% or less (almost no effect)) | 1 (Herbicidal ratio of 5% or more and less than 20%)
3 | Cc1nnc(NC(=O)c2ccc(C(F)(F)F)n3c(SCC(F)(F)F)nnc23)o1 [1-124] | 1 (Herbicidal ratio of 5% or more and less than 20%) | 3 (Herbicidal ratio of 40% or more and less than 70%) | 0 (Herbicidal ratio of 5% or less (almost no effect)) | 3 (Herbicidal ratio of 40% or more and less than 70%) | 0 (Herbicidal ratio of 5% or less (almost no effect)) | 0 (Herbicidal ratio of 5% or less (almost no effect)) | 5 (Herbicidal ratio of 90% or more (almost completely withered)) | 5 (Herbicidal ratio of 90% or more (almost completely withered)) | 4 (Herbicidal ratio of 70% or more and less than 90%) | 3 (Herbicidal ratio of 40% or more and less than 70%) | 0 (Herbicidal ratio of 5% or less (almost no effect)) | 0 (Herbicidal ratio of 5% or less (almost no effect)) | 2 (Herbicidal ratio of 20% or more and less than 40%) | 3 (Herbicidal ratio of 40% or more and less than 70%) | 5 (Herbicidal ratio of 90% or more (almost completely withered)) | 2 (Herbicidal ratio of 20% or more and less than 40%) | 5 (Herbicidal ratio of 90% or more (almost completely withered)) | 1 (Herbicidal ratio of 5% or more and less than 20%) | 2 (Herbicidal ratio of 20% or more and less than 40%)
4 | CC(=O)CSc1nnc2c(C(=O)Nc3nnc(C)o3)ccc(C(F)(F)F)n12 [1-125] | 2 (Herbicidal ratio of 20% or more and less than 40%) | 3 (Herbicidal ratio of 40% or more and less than 70%) | 3 (Herbicidal ratio of 40% or more and less than 70%) | 5 (Herbicidal ratio of 90% or more (almost completely withered)) | 1 (Herbicidal ratio of 5% or more and less than 20%) | 0 (Herbicidal ratio of 5% or less (almost no effect)) | 4 (Herbicidal ratio of 70% or more and less than 90%) | 4 (Herbicidal ratio of 70% or more and less than 90%) | 3 (Herbicidal ratio of 40% or more and less than 70%) | 1 (Herbicidal ratio of 5% or more and less than 20%) | 0 (Herbicidal ratio of 5% or less (almost no effect)) | 0 (Herbicidal ratio of 5% or less (almost no effect)) | 0 (Herbicidal ratio of 5% or less (almost no effect)) | 4 (Herbicidal ratio of 70% or more and less than 90%) | 3 (Herbicidal ratio of 40% or more and less than 70%) | 0 (Herbicidal ratio of 5% or less (almost no effect)) | 5 (Herbicidal ratio of 90% or more (almost completely withered)) | 0 (Herbicidal ratio of 5% or less (almost no effect)) | 1 (Herbicidal ratio of 5% or more and less than 20%)
5 | Cc1nnc(NC(=O)c2ccc(C(F)(F)F)n3c(SCC4OCCO4)nnc23)o1 [1-126] | 1 (Herbicidal ratio of 5% or more and less than 20%) | 2 (Herbicidal ratio of 20% or more and less than 40%) | 3 (Herbicidal ratio of 40% or more and less than 70%) | 5 (Herbicidal ratio of 90% or more (almost completely withered)) | 0 (Herbicidal ratio of 5% or less (almost no effect)) | 0 (Herbicidal ratio of 5% or less (almost no effect)) | 4 (Herbicidal ratio of 70% or more and less than 90%) | 5 (Herbicidal ratio of 90% or more (almost completely withered)) | 3 (Herbicidal ratio of 40% or more and less than 70%) | 3 (Herbicidal ratio of 40% or more and less than 70%) | 0 (Herbicidal ratio of 5% or less (almost no effect)) | 0 (Herbicidal ratio of 5% or less (almost no effect)) | 1 (Herbicidal ratio of 5% or more and less than 20%) | 5 (Herbicidal ratio of 90% or more (almost completely withered)) | 3 (Herbicidal ratio of 40% or more and less than 70%) | 4 (Herbicidal ratio of 70% or more and less than 90%) | 5 (Herbicidal ratio of 90% or more (almost completely withered)) | 1 (Herbicidal ratio of 5% or more and less than 20%) | 0 (Herbicidal ratio of 5% or less (almost no effect))
